# Key:
# [1] = target: T1, Actinoplanes missouriensis glucose isomerase (EcoAmi(DSM) GI), wildtype (WT-GI) (Actinoplanes missouriensis, UniProt P12851); assay: Catalytic parameters with D-xylose (D-sorbitol dehydrogenase coupled assay) or D-glucose (cysteine-carbazole method) as substrate; assay type: biochemical; conditions: 35°C, pH 7.5, 10mM MgSO4
# T1 construct: made in house; host or cells: E. coli K514 (pMa5-I / pMc5-I)
# Method: (§1) In the D-Sorbitol Dehydrogenase Coupled Assay, enzymatic determination of D-xylulose was performed at 35°C as previously described (Kersters-Hilderson et al., Enzyme Microb. Technol. 9 (1987) 145) in 50mM triethanolamine, pH 7.5, 10mM MgSO4, and 0.1 M xylose, in the presence of ± 2 x 10^-8 M D-sorbitol dehydrogenase (L-iditol : NAD oxido-reductase, EC 1.1.14), and 0.15 nM NADH, except that the incubation buffer also included 1mM ethylenebis(oxyethylene-nitrilo)tetraacetic acid (EGTA). Glucose isomerase final concentration in this assay was ± 2.5 x 10^-3 mg/ml, and precisely determined as described above.
# (§2) With glucose as a substrate GI activity can be assayed by the measurement of D-fructose produced during the isomerization reaction using the cysteine-carbazole method (CCM) which is based on the reaction of ketosugars with carbazole in acids to yield a purple product (Dische and Borenfreund, 1951).
# (§3) • Spa = specific activity in micromoles of product (D-xylulose or D-fructose) per minute (unit), per mg of enzyme. • Vmax is expressed in units per mg of enzyme. • KM is the Michaelis constant, expressed in mM. • ND = not determined.
# [2] = target: T2, Actinoplanes missouriensis glucose isomerase (EcoAmi(DSM) GI), mutant G70S;A73S;G74T (Actinoplanes missouriensis, UniProt P12851, A73S/G70S/G74T); assay type: biochemical; conditions: D-xylose as substrate, coupled assay, 35°C, pH 7.5, 10mM MgSO4
# T2 construct: made in house; host or cells: E. coli K514 (mutated pMa5-I / pMc5-I)
# Method: as §1, §2, §3
# T2 sequence (P12851 whole entry G70S/A73S/G74T): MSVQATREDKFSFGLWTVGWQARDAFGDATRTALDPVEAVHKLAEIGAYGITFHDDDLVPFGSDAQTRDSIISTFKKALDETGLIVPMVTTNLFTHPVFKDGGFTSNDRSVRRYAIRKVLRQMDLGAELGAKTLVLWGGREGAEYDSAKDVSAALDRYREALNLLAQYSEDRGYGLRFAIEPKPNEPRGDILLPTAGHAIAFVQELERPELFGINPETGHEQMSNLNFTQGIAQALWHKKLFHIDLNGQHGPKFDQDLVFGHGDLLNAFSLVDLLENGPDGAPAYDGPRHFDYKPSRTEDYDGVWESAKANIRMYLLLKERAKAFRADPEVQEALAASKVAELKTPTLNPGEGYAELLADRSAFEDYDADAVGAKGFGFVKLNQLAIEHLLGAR
# T1 sequence (P12851 whole entry): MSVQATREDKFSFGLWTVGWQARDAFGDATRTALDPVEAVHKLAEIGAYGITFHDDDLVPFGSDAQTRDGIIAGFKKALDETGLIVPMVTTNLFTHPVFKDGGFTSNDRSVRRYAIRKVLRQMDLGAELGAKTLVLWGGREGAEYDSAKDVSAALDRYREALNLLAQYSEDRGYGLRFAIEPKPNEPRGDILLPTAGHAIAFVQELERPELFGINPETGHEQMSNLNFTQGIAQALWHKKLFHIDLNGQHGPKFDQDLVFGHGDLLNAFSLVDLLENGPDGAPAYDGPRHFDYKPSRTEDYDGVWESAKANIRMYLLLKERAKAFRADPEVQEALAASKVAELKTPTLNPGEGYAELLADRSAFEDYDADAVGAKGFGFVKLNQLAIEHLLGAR
compound,measurement,setting,value
"O=C[C@H](O)[C@@H](O)[C@H](O)CO [Xylose, D-xylose]",Km,[1],4.8 mM
same,Vmax (Xylose),[1],24.2 units per mg of enzyme
same,Km (Xylose),[2],5.3 mM
same,Vmax (Xylose),[2],24.9 units per mg of enzyme
